In patent US8093210B2, “Treatment of sepsis with 5-ethyl-1-phenyl-2(1H)-pyridone” (Solanan, Inc., priority 2008, dated 2012):

Legend:
[1] = tested on: LPS/D-galactosamine model of septic shock; assay: Lethal LPS/D-galactosamine-induced shock, survival of mice (Example 1); type: in vivo; details: for mortality: 72 hrs post-treatment
Description: Mice were treated with 5-EPP after inducing shock with lipopolysaccharide (LPS) pursuant to established models for lethal LPS-induced shock. The method described by Galanos C, Freudenberg M A, Reutter W. Proc Natl Acad Sci USA. 1979 November; 76 (11):5939-43 was followed. The survival of the mice after treatment with various doses of the agent in LPS/D-galactosamine model of septic shock was monitored. All agents were injected simultaneously via the intraperitoneal route and the response compared to a placebo agent (saline).
All data were analyzed by Fisher's exact test (Prism™ for Window 4.02, Graphpad Software, Inc., San Diego, Calif.). A value of P<0.05 was considered to be statistically significant.
Table 1 clearly illustrates that 5-ethyl-1-phenyl-2(1H)-pyridone (5-EPP) protected mice from lethal LPS/D-galactosamine-induced shock at 72 hrs post-treatment.

[2] = tested on: TNF-α; assay: Serum TNF-α (ELISA) in LPS/D-galactosamine model of sepsis (Example 5); type: in vivo, mice; details: 90 minutes after the treatment
Description: (§1) Mice were treated simultaneously with LPS (10 μg/kg) and D-galactosamine (600 mg/kg) (Galanos C, Freudenberg M A, Reutter W. […] They were anesthetized with halothane and blood was collected at different times by cardiac puncture and centrifuged to separate serum. The serum levels of alanine transaminase (ALT) and aspartate transaminase (AST) were measured by a commercial diagnostic company (Idexx Laboratories). The serum levels of tumor necrosis factor-alpha (TNF-α), interleukin-6 (IL-6) and interleukin-12 (IL-12) were determined by commercially available mouse enzyme-linked immunosorbent assay (ELISA) kits (BD BioSciences, San Jose, Calif.).
(§2) The methodology utilized in Example 4 was used to measure and analyze the serum enzyme data for statistical significance. The serum levels of proinflammatory cytokines between the 5-EPP treated and saline control groups were analyzed for statistical significance by one-way ANOVA and a Tukey's multiple comparison test (Prism™ for Windows 4.02, Graphpad Software, Inc. San Diego, Calif.).

[3] = tested on: cecal ligation and puncture (CLP) model of sepsis; assay: Serum biomarkers and recoverable serum volume in cecal ligation and puncture (CLP) model of sepsis (Example 4); type: in vivo, Male Swiss-Webster mice; details: for level of blood urea nitrogen (BUN) / recoverable blood-serum volume (average volume of serum) / serum level of alanine transaminase (ALT) / serum level of creatine kinase / serum level of glucose: 200 mg/kg ip 2 h before CLP, mean ± SEM
Description: Cecal ligation and puncture (CLP) is a more advanced model of septic shock than those involving lipopolysaccharide (LPS). In this model, as described by Wichterman K A, Baue A E, Chaudry I H (J Surg Res. 1980, 29; 189-201), mice are given intraperitoneal (IP) injections of the test compound or saline (control) prior to the beginning of the surgery. The mice are then anesthetized and a laparotomy is performed. The cecum is isolated and separated from the rest of the intestines by tying it at its base with a suturing thread. The cecum is then punctured with a needle. This facilitates influx of the colonic microflora into the abdominal cavity, which results in polymicrobial-induced peritonitis. Unlike the endotoxin model of septic shock, which is initiated by purified bacterial cell wall products, lipopolysaccharide (LPS), that simulates an acute septic shock, the CLP model more closely mimics clinically encountered signs of septic shock seen in humans as it is triggered by living bacteria.
Male Swiss-Webster mice, seven weeks old, were injected with 5-EPP (200 mg/kg) or saline (control) by intraperitoneal route two hours prior to the beginning of the surgery. They were anesthetized by a mixture of xylazine and ketamine, and a laparotomy was performed. The cecum was separated from the rest of the intestine, ligated with suture, and then punctured with an 18 gauge needle. Blood was collected by cardiac puncture 3, 6, or 12 hours after CLP and the serum isolated by centrifugation. Analysis of serum transaminases, blood urea nitrogen, creatine kinase, and glucose was carried out by a commercial company (Idexx Laboratories, West Sacramento, Calif.).
The results are reported as the mean±standard error of the mean with the number of animals in parentheses for each group. The statistical analysis for differences between saline control and 5-EPP pretreated mice was performed using […] (Prism™ for Windows 4.02, Graphpad Software, Inc., San Diego, Calif.). A value of P<0.05 was considered to be the minimum level of statistical significance. Reference values were determined by analyzing serum from mice injected with saline but not subjected to the CLP procedure.

[4] = tested on: IL-6; assay: Serum IL-6 (ELISA) in LPS/D-galactosamine model of sepsis (Example 5); type: in vivo, mice; details: 90 minutes after the treatment
Description: as §1, §2

[5] = tested on: TNF-α in THP-1 cells; assay: Secreted and cell-associated TNF-α in PMA-transformed THP-1 cells exposed to LPS (ELISA, Example 6); type: cell-based, human; details: 3 hr, mean ± SEM, four replicates; for Secreted TNF-α: THP-1, 1 ng/mL LPS; for Cell-associated TNF-α: THP-1 lysate, 1 ng/mL LPS
Description: The effects of 5-EPP on secreted and cell associated TNF-α was examined in vitro using phorbol myristate acetate-transformed (PMA; Sigma, St. Louis, Mo.) human monocytic cells, THP-1 (ATCC, Manassas, Va.) according to the technique described by Grattendick et al. (International Immunopharmacology 2008, 8; 679-87). Briefly, cells were incubated for 3 hr on 96-well plates with culture media, 1 ng/mL LPS, or 1 ng/mL LPS 0-200 μg/mL 5-EPP before culture media were collected and analyzed for the presence of secreted TNF-α via a commercially available enzyme-linked immunosorbent assay (ELISA) kit (BD Biosciences, San Diego, Calif.). Separately, identically treated cells were lysed and their cell-associated TNF-α levels were determined via ELISA. All treatment groups were simultaneously compared using one-way ANOVA and Tukey's multiple comparison tests.
The values are expressed in pg/mL as mean±standard error of the mean for four replicates at all concentrations in each case.

CCc1ccc(=O)n(-c2ccccc2)c1 [5-EPP, 5-ethyl-1-phenyl-2-(1H)-pyridone]
mortality ([1]; 25 mg/kg i.p. simultaneously with LPS/D-galactosamine): 30% mortality | mortality ([1]; 50 mg/kg i.p. simultaneously with LPS/D-galactosamine): 5% mortality | mortality ([1]; 100 mg/kg i.p. simultaneously with LPS/D-galactosamine): 0% mortality | onset of lethal shock ([1]; lowest dose (25 mg/kg)): delay of the onset of lethal shock | serum level of TNF-α ([2]; 12.5 mg/kg): 5,220 ± 1280 pg/mL | serum level of TNF-α ([2]; 25 mg/kg): 2,780 ± 481 pg/mL | serum level of TNF-α ([2]; 50 mg/kg): 576 ± 79 pg/mL | serum level of TNF-α ([2]; 100 mg/kg): 340 ± 34 pg/mL | level of blood urea nitrogen (BUN) ([3]; 3 Hours Post-CLP): 20.8 ± 0.1 (11) mg/dL | recoverable blood-serum volume (average volume of serum) ([3]; 3 Hours Post-CLP): 238.8 ± 20.11 (13) microliter | serum level of alanine transaminase (ALT) ([3]; 3 Hours Post-CLP): 159.1 ± 21.2 (11) U/L | serum level of creatine kinase ([3]; 3 Hours Post-CLP): 2790.4 ± 370.8 (11) U/L | serum level of glucose ([3]; 3 Hours Post-CLP): 303.9 ± 30.8 (11) mg/dL | level of blood urea nitrogen (BUN) ([3]; 6 Hours Post-CLP): 19.4 ± 1.0 (12) mg/dL | recoverable blood-serum volume (average volume of serum) ([3]; 6 Hours Post-CLP): 219.6 ± 16.70 (12) microliter | serum level of alanine transaminase (ALT) ([3]; 6 Hours Post-CLP): 128.9 ± 28.7 (12) U/L | serum level of creatine kinase ([3]; 6 Hours Post-CLP): 1950.3 ± 244.1 (12) U/L | serum level of glucose ([3]; 6 Hours Post-CLP): 116.7 ± 7.7 (12) mg/dL | level of blood urea nitrogen (BUN) ([3]; 12 Hours Post-CLP): 23 ± 2.3 (12) mg/dL | recoverable blood-serum volume (average volume of serum) ([3]; 12 Hours Post-CLP): 282.7 ± 27.70 (13) microliter | serum level of alanine transaminase (ALT) ([3]; 12 Hours Post-CLP): 148.2 ± 12.5 (12) U/L | serum level of creatine kinase ([3]; 12 Hours Post-CLP): 778.5 ± 91.6 (12) U/L | serum level of glucose ([3]; 12 Hours Post-CLP): 102.9 ± 5.9 (12) mg/dL | serum to blood ratio versus saline-control CLP mice ([3]; 200 mg/kg ip, at any time, data not shown): no significant difference | serum level of IL-6 ([4]; 50 mg/kg): 9,980 ± 564 pg/mL | serum level of IL-6 ([4]; 100 mg/kg): 5,111 ± 343 pg/mL | serum level of IL-6 ([4]; 200 mg/kg): 3,578 ± 421 pg/mL | Secreted TNF-α ([5]; 10 μg/mL 5-EPP): 5382.8 ± 91.8 pg/mL | Secreted TNF-α ([5]; 33 μg/mL 5-EPP): 3261.5 ± 94.1 pg/mL | Secreted TNF-α ([5]; 100 μg/mL 5-EPP): 2073.7 ± 60.7 pg/mL | Secreted TNF-α ([5]; 200 μg/mL 5-EPP): 1469.7 ± 58.9 pg/mL | Cell-associated TNF-α ([5]; 10 μg/mL 5-EPP): 35.4 ± 3.1 pg/mL | Cell-associated TNF-α ([5]; 33 μg/mL 5-EPP): 25.9 ± 1.6 pg/mL | Cell-associated TNF-α ([5]; 100 μg/mL 5-EPP): 19.0 ± 0.9 pg/mL | Cell-associated TNF-α ([5]; 200 μg/mL 5-EPP): 10.1 ± 1.3 pg/mL
